Like-named read-outs stand apart in the source and are kept apart here. Some results are limits rather than exact numbers.

The test system of data set [1] is P. falciparum 3D7. Particulars: read-out: Pf(3D7) EC50, cited from earlier work.
The target in data set [2] is T1, Plasmodium falciparum thioredoxin reductase (PfTrxR) (Plasmodium falciparum, UniProt P61076).
T1 sequence (P61076 1-541 isoform P61076-2): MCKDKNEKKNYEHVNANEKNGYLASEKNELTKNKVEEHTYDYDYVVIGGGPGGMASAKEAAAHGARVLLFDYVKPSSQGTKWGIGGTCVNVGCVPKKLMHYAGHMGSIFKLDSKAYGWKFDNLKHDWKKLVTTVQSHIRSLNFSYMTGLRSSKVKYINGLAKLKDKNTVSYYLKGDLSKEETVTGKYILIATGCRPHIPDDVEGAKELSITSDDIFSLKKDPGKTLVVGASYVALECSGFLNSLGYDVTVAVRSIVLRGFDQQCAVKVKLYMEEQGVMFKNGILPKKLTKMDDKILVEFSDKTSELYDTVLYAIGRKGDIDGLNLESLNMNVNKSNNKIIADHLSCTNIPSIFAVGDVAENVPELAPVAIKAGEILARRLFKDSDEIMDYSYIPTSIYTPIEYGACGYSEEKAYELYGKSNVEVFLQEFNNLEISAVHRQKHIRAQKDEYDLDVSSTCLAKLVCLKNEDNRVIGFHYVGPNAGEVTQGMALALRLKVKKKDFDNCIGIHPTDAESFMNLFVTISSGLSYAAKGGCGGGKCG
Nature of the data set: biochemical. Type of data set: biochemical. Particulars: for IC50: cytosolic PfTrxR (PfTrxR 1 isoform), titrated 50 to 0.07 µM; for Hill slope of dose response curve against PfTrxR: Figure 2.

Data set [3] relates to MRC-5 cells (human fetal lung cells). Particulars: cited from earlier work.
Where [4] appears, read: chloroquine sensitive, sulfadoxine resistant strain, MMV database ref 10.
Where [5] appears, read: read-out: MRC-5 Cells IC50, human fetal lung cells, cytotoxicity, MMV database ref 10.

In the case of `C[C@@H]1CC[C@H]2[C@@H](C)C(=O)O[C@@H]3O[C@@]4(C)CC[C@@H]1[C@]32OO4` [Artemisinin, reference compound], in data set [1] (setting [4]), the EC50 (commonly the midpoint of the concentration-response curve) was 20.7 nM.
Regarding `O=C1C(O)=C([C@H]2CC[C@H](c3ccc(Cl)cc3)CC2)C(=O)c2ccccc21` [Atovaquone, reference compound], the EC50 in data set [1] is 0.24 nM. The IC50 (commonly the concentration at which inhibition is half-maximal) in data set [2] is > 10000 nM.
Regarding `CCN(CC)CCCC(C)Nc1ccnc2cc(Cl)ccc12` (centres unmarked) [Chloroquine, reference compound], the EC50 in data set [1] (setting [4]) was 27.3 nM.
With `N.N.[Cl][Pt][Cl]` [Cisplatin, reference compound], the IC50 in data set [3] is 19600 nM.
On to `CCc1c(C)c(=N)c2ccccc2n1C` [Compound 1, 2-ethyl-1,3-dimethylquinolin-4-imine;hydroiodide], for which the EC50 in data set [1] (setting [4]) is 378 nM. In addition, in data set [2], the “Hill slope of dose response curve against PfTrxR” value (from here on “Hill slope of dose response curve”) amounted to 1.1420 and the IC50 was 3500 nM.
Take `COc1ccccc1NC1=C(N2CCCCC2)C(=O)c2ccccc2C1=O` [Compound 2, 2-(2-methoxyanilino)-3-piperidin-1-ylnaphthalene-1,4-dione]: the EC50 in data set [1] (setting [4]) was 5.3 nM. Moreover, the “Hill slope of dose response curve” value in data set [2] came to 0.6031. Besides, the figures for the IC50 in data set [2] and in data set [3] (setting [5]) were 900 nM and 68700 nM, respectively.
Turning to `CCOc1cc2c(cc1OCC)C(c1cc(OC)c(O)cc1Cl)NCC2` (centres unmarked) [Compound 3, 5-chloro-4-(6,7-diethoxy-1,2,3,4-tetrahydroisoquinolin-1-yl)-2-methoxyphenol], the EC50 in data set [1] (setting [4]) was 370 nM. Besides, in data set [2], the “Hill slope of dose response curve” value stood at 0.8022 and it took 6600 nM to reach half-maximal inhibition (IC50). In data set [3] (setting [5]), the IC50 was 85400 nM.
For `COc1ccc(-c2c(C)nn3c(N)c(C#N)cnc23)cc1OC` [Compound 4, 7-amino-3-(3,4-dimethoxyphenyl)-2-methylpyrazolo[1,5-a]pyrimidine-6-carbonitrile], in data set [1] (setting [4]), the concentration for a half-maximal effect (EC50) was 477 nM. In data set [2], the “Hill slope of dose response curve” value turned out to be 2.0020. Further, the IC50 in data set [3] (setting [5]) was > 100000 nM.
Take `CCCc1c(CC)c(=N)c2ccccc2n1C` [Compound 5, 3-ethyl-1-methyl-2-propylquinolin-4-imine;hydron;iodide]: in data set [1] (setting [4]), the EC50 was 242 nM. In addition, the “Hill slope of dose response curve” value in data set [2] is 1.1510. Besides, the IC50 is 7500 nM in data set [2] and 71200 nM in data set [3] (setting [5]).

These data come from paper PMC6273446, “Preliminary LC-MS Based Screening for Inhibitors of Plasmodium falciparum Thioredoxin Reductase (PfTrxR) among a Set of Antimalarials from the Malaria Box” (Molecules, 2016).
